System: EMT6 cells
Assay: Drug efficacy evaluation test using tumor-bearing mice transplanted with EMT6 cells (Experimental Example 7)
Assay type: in vivo, BALB/c mice
Conditions: liposome formulation, tail vein, 25 mg/kg and 50 mg/kg twice a week
Protocol: The liposome formulation encapsulating the compound of the present disclosure was treated and evaluated for anti-tumor effect.
The liposome formulations were prepared as follows. The liposomes encapsulating the compounds of Example 3 and Example 4 were prepared in the same manner as in Experimental Example 4, respectively. The liposome outer solution was replaced with 10 mM tartrate buffer solution/10% sucrose solution (pH 4) using Sephadex G-25 column (PD-10, manufactured by GE Healthcare), followed by concentration by an ultrafiltration filter (AmiconUltra, 100K, 15 mL, manufactured by Merck), and filtration through a 0.22 μm membrane filter.
EMT6 cells (ATCC) were intradermally transplanted into 5-week-old BALB/c mice (BALB/cAnNCrlCrlj, female, Charles River, Japan) around the ventral region at 5×10^5 cells/mouse. […] The tumor volume was measured over time from the start of administration, and the tumor volume reduction effect due to compound administration was evaluated. The tumor volume was calculated by the following formula using the short and long diameters of the tumor measured with an electronic caliper (Mitutoyo). […]
The anti-tumor effect was evaluated by comparing the control group administered with the empty liposome solution and the administration group of the compound of the present disclosure, and calculating T/C by the following formula.

**Q.** `CN1CC[C@H](c2c(OC(=O)N(C)C[C@H]3CCCCN3)cc(O)c3c(=O)cc(-c4ccccc4Cl)oc23)[C@H](O)C1` [Example 4, 2-(2-chlorophenyl)-5-hydroxy-8-[(3S,4R)-3-hydroxy-1-methylpiperidin-4-yl]-4-oxo-4H-1-benzopyran-7-yl methyl{[(2R)-piperidin-2-yl]methyl}carbamate] was tested. Which “Effect on tumor volume” value did it give?
**A.** significantly inhibited the increase in tumor volume

From patent publication US12617779B2, “Self degradation-type CDK9 inhibitor prodrug and liposome encapsulating same” (Sumitomo Pharma Co., Ltd., priority 2021, dated 2026)
